Results: ChEMBL document CHEMBL6078622, “Enhancing outer membrane permeability of tetracycline antibiotics in P. aeruginosa using TOB-CIP conjugates” (RSC Med Chem, 2024)
Values after ≈ are worked out from the molar mass of the structure shown. Active and inactive are the calls of the source. The calls are words filed in the database; no cut-off is given here.

Assays:
[1] = tested on: Acinetobacter baumannii; experiment: Antibacterial activity against Acinetobacter baumannii ATCC 17978 assessed as inhibition of visible bacterial growth by CLSI based broth-microdilution method; assay type: functional
[2] = tested on: Pseudomonas aeruginosa; experiment: Antibacterial activity against Pseudomonas aeruginosa PAO1 assessed as inhibition of visible bacterial growth by CLSI based broth-microdilution method; assay type: functional
[3] = tested on: HEK293; experiment: Cytotoxicity against HEK293 cells assessed as reduction in cell viability at 7 uM; assay type: toxicity, cell-based; conditions: human, hek293, 7 µM
[4] = tested on: HepG2; experiment: Cytotoxicity against human HepG2 cells assessed as inhibition of cell vitality at 162 uM; assay type: functional; set-up: scale not given: the % may be the effect or the level left
[5] = tested on: HepG2; experiment: Cytotoxicity against human HepG2 cells assessed as reduction in cell viability; assay type: functional
[6] = tested on: Escherichia coli; experiment: Antibacterial activity against Escherichia coli ATCC 25922 assessed as inhibition of visible bacterial growth by CLSI based broth-microdilution method; assay type: functional
[7] = tested on: Pseudomonas aeruginosa; experiment: Synergistic antibacterial activity against Pseudomonas aeruginosa PAO1 assessed as fold change in minocycline MIC by checkerboard analysis relative to minocycline alone; assay type: functional
[8] = tested on: Pseudomonas aeruginosa; experiment: Synergistic antibacterial activity against Pseudomonas aeruginosa PAO1 assessed as fold change in tigecycline MIC by checkerboard analysis relative to Tigecycline alone; assay type: functional
[9] = tested on: Pseudomonas aeruginosa; experiment: Synergistic antibacterial activity against Pseudomonas aeruginosa PAO1 assessed as fold change in eravacycline MIC by checkerboard analysis relative to eravacycline alone; assay type: functional
[10] = tested on: Pseudomonas aeruginosa; experiment: Synergistic antibacterial activity against Pseudomonas aeruginosa PAO1 assessed as fold change in doxycycline MIC by checkerboard analysis relative to doxycycline alone; assay type: functional
[11] = tested on: HEK293; experiment: Cytotoxicity against HEK293 cells assessed as reduction in cell viability at 162 uM; assay type: toxicity, cell-based; conditions: human, hek293, 162 µM
[12] = tested on: HepG2; experiment: Cytotoxicity against human HepG2 cells assessed as reduction in cell viability at 400 uM; assay type: functional, cell-based
[13] = tested on: Pseudomonas aeruginosa; experiment: Antibacterial activity against Pseudomonas aeruginosa PA100036 assessed as inhibition of visible bacterial growth by CLSI based broth-microdilution method; assay type: functional
[14] = tested on: Pseudomonas aeruginosa; experiment: Antibacterial activity against Pseudomonas aeruginosa PA264 assessed as inhibition of visible bacterial growth by CLSI based broth-microdilution method; assay type: functional
[15] = tested on: Pseudomonas aeruginosa; experiment: Antibacterial activity against Pseudomonas aeruginosa PA259 assessed as inhibition of visible bacterial growth by CLSI based broth-microdilution method; assay type: functional
[16] = tested on: Pseudomonas aeruginosa; experiment: Antibacterial activity against Pseudomonas aeruginosa PA200 assessed as inhibition of visible bacterial growth by CLSI based broth-microdilution method; assay type: functional
[17] = tested on: Pseudomonas aeruginosa; experiment: Antibacterial activity against Pseudomonas aeruginosa PA262 assessed as inhibition of visible bacterial growth by CLSI based broth-microdilution method; assay type: functional
[18] = tested on: Pseudomonas aeruginosa; experiment: Antibacterial activity against Pseudomonas aeruginosa PA114228 assessed as inhibition of visible bacterial growth by CLSI based broth-microdilution method; assay type: functional
[19] = tested on: Pseudomonas aeruginosa; experiment: Antibacterial activity against Pseudomonas aeruginosa PA095 assessed as inhibition of visible bacterial growth by CLSI based broth-microdilution method; assay type: functional
[20] = tested on: Pseudomonas aeruginosa; experiment: Antibacterial activity against Pseudomonas aeruginosa PA101243 assessed as inhibition of visible bacterial growth by CLSI based broth-microdilution method; assay type: functional

Compound	MIC [1] [µg/mL]	MIC [2] [µg/mL]	MIC [6] [µg/mL]	Activity [3]	Activity [4] [%]	Activity [5] [%]	fold change (FC) [7]	fold change (FC) [8]	fold change (FC) [9]	fold change (FC) [10]	Activity [11] [%]	Activity [12]	MIC [13] [µg/mL]	MIC [14] [µg/mL]	MIC [15] [µg/mL]	MIC [16] [µg/mL]	MIC [17] [µg/mL]	MIC [18] [µg/mL]	MIC [19] [µg/mL]	MIC [20] [µg/mL]
CCCCCCCCCCCCNC(=O)c1cn(C2CC2)c2cc(N3CCNCC3)c(F)cc2c1=O.Cl	> 128	> 120	> 128	–	–	–	–	–	–	–	–	–	–	–	–	–	–	–	–	–
CN(C)c1cc(NC(=O)CNC(C)(C)C)c(O)c2c1C[C@H]1C[C@H]3[C@H](N(C)C)C(O)=C(C(N)=O)C(=O)[C@@]3(O)C(O)=C1C2=O [TIGECYCLINE]	–	–	–	–	–	–	–	–	–	–	–	–	64 (≈ 109 µM)	32 (≈ 54.6 µM)	32 (≈ 54.6 µM)	1 (≈ 1.71 µM)	64 (≈ 109 µM)	64 (≈ 109 µM)	32 (≈ 54.6 µM)	8 (≈ 13.7 µM)
CN(C)[C@@H]1C(O)=C(C(N)=O)C(=O)[C@@]2(O)C(O)=C3C(=O)c4c(O)c(NC(=O)CN5CCCC5)cc(F)c4C[C@H]3C[C@@H]12 [ERAVACYCLINE]	–	–	–	–	–	–	–	–	–	–	–	–	32 (≈ 57.3 µM)	32 (≈ 57.3 µM)	32 (≈ 57.3 µM)	0.5 (≈ 0.895 µM)	64 (≈ 115 µM)	16 (≈ 28.6 µM)	32 (≈ 57.3 µM)	8 (≈ 14.3 µM)
C[C@H]1c2cccc(O)c2C(=O)C2=C(O)[C@]3(O)C(=O)C(C(N)=O)=C(O)[C@@H](N(C)C)[C@@H]3[C@@H](O)[C@@H]21 [DOXYCYCLINE ANHYDROUS]	–	–	–	–	–	–	–	–	–	–	–	–	> 128	> 64	64 (≈ 144 µM)	1 (≈ 2.25 µM)	> 512	64 (≈ 144 µM)	64 (≈ 144 µM)	16 (≈ 36 µM)
CN(C)c1ccc(O)c2c1C[C@H]1C[C@H]3[C@H](N(C)C)C(O)=C(C(N)=O)C(=O)[C@@]3(O)C(O)=C1C2=O [MINOCYCLINE]	–	–	–	–	–	–	–	–	–	–	–	–	128 (≈ 280 µM)	128 (≈ 280 µM)	128 (≈ 280 µM)	0.5 (≈ 1.09 µM)	256 (≈ 560 µM)	256 (≈ 560 µM)	64 (≈ 140 µM)	8 (≈ 17.5 µM)
NC[C@H]1O[C@H](O[C@H]2[C@H](O)[C@@H](O[C@H]3O[C@H](CO)[C@@H](O)[C@H](N)[C@H]3O)[C@H](N)C[C@@H]2N)[C@H](N)C[C@@H]1O [TOBRAMYCIN]	0.5 (≈ 1.07 µM)	0.5 (≈ 1.07 µM)	2 (≈ 4.28 µM)	–	–	–	–	–	–	–	–	–	–	–	–	–	–	–	–	–

Further lines, with some results ahead:

MIC [1] [µg/mL]	MIC [2] [µg/mL]	MIC [6] [µg/mL]	Compound	Activity [3]	Activity [4] [%]	Activity [5] [%]	fold change (FC) [7]	fold change (FC) [8]	fold change (FC) [9]	fold change (FC) [10]	Activity [11] [%]	Activity [12]	MIC [13] [µg/mL]	MIC [14] [µg/mL]	MIC [15] [µg/mL]	MIC [16] [µg/mL]	MIC [17] [µg/mL]	MIC [18] [µg/mL]	MIC [19] [µg/mL]	MIC [20] [µg/mL]
> 128	> 120	> 128	Cl.Cl.Cl.Cl.Cl.Cl.NC[C@H]1O[C@H](O[C@H]2[C@H](OCCOCCOCCOCCNC(=O)c3cn(C4CC4)c4cc(N5CCNCC5)c(F)cc4c3=O)[C@@H](O[C@H]3O[C@H](CO)[C@@H](O)[C@H](N)[C@H]3O)[C@H](N)C[C@@H]2N)[C@H](N)C[C@@H]1O	Non-toxic	60	60	–	–	–	–	–	–	–	–	–	–	–	–	–	–
> 128	> 120	> 128	Cl.Cl.Cl.Cl.Cl.Cl.NC[C@H]1O[C@H](O[C@H]2[C@H](OCCCCCCCCNC(=O)c3cn(C4CC4)c4cc(N5CCNCC5)c(F)cc4c3=O)[C@@H](O[C@H]3O[C@H](CO)[C@@H](O)[C@H](N)[C@H]3O)[C@H](N)C[C@@H]2N)[C@H](N)C[C@@H]1O	Non-toxic	55	69	4	4	4	4	–	–	–	–	–	–	–	–	–	–
> 128	> 120	> 128	Cl.Cl.Cl.Cl.Cl.Cl.NC[C@H]1O[C@H](O[C@H]2[C@H](OCc3ccc(-c4ccc(CNC(=O)c5cn(C6CC6)c6cc(N7CCNCC7)c(F)cc6c5=O)cc4)cc3)[C@@H](O[C@H]3O[C@H](CO)[C@@H](O)[C@H](N)[C@H]3O)[C@H](N)C[C@@H]2N)[C@H](N)C[C@@H]1O	Non-toxic	40	88	16	16	16	16	27	Active	–	–	–	–	–	–	–	–
> 128	> 120	> 128	CC(=O)NCCCCCCCCCCCCO[C@@H]1[C@@H](O[C@H]2O[C@H](CO)[C@@H](O)[C@H](N)[C@H]2O)[C@H](N)C[C@H](N)[C@H]1O[C@H]1O[C@H](CN)[C@@H](O)C[C@H]1N.Cl.Cl.Cl.Cl.Cl	–	–	–	4	1	–	8	–	–	–	–	–	–	–	–	–	–
